According to US10213507B2, “Compositions and methods for treating HIV-associated neurocognitive disorders” (THE FLORIDA INTERNATIONAL UNIVERSITY BOARD OF TRUSTEES, priority 2017, dated 2019):
Entries after “also recorded” stand apart in the source; their conditions may differ.

What was measured:
σ-1 receptor = biological target: T1, σ-1 receptor (Mus musculus, UniProt O55242); details: pre-treatment of mice; cited from earlier work
T1 construct: from tissue; host or cells: whole animal (mice), endogenous receptor
T1 sequence (O55242 whole entry): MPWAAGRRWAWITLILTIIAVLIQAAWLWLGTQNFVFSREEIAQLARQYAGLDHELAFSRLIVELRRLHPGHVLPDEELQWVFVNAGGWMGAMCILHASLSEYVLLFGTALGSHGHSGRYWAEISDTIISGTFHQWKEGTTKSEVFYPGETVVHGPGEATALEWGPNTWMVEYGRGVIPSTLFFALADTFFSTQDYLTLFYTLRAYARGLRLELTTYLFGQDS

[1] = test system: Aβ-production in SH-APP cells; experiment: HIV-induced β-amyloid production in SH-APP cells by flow cytometry; format: cell-based, human; details: HIV 100 ng 7 days, WA 2 μM 48 hours, Aβ 1-40 specific antibody
Description: FIGS. 7A-7D show quantitative analysis of β-amyloid production after 7 days of HIV infection and 48 hours of WA treatment (2 μM) on SH-APP (neuroblastoma cell line) using flow cytometry. An increase in β-amyloid production is observed in cells treated with B) HIV-100 ng; compared to A) Control.

CHME-5 cells = experiment: XTT cytotoxicity assay in CHME-5 cells; format: cell-based; details: 1 μM WA, 48 hours
Description: (§1) FIGS. 6A-6C show Effect of WA on HIV-1 suppression and its cytotoxicity in microglial (CHME-5) cell±HIV. […] (A) p24 study; (B) LTR and (C) Cytotoxicity study: XTT assay was performed on WA treated CHME-5 cells (n=3; *, p≤0.05; ****, p≤0.001; NS-Not Significant).
(§2) Human microglial cells (CHME-5) were infected with HIV and treated with different concentrations of WA (0.5 and 1 μM). Seven days post-infection (dpi), culture supernatant was used for p24 ELISA and cell pellet was used for the […] (LTR) measurement using quantitative real-time PCR.

HIV = HIV LTR detection in HIV-exposed SH-APP cells; format: cell-based; details: WA 2 μm, HIV 100 ng, 1 dpi; 30,000 copies with HIV alone
Text: (n=3; *, p≤0.05; **, p≤0.01; and ***, p≤0.001.)
AβPP-transfected SH-APP cells are susceptible to HIV infection.

[2] = test system: in-vitro BBB model (brain microvascular endothelial cells, astrocytes and pericytes); experiment: In-vitro BBB model integrity (TEER); format: cell-based, human; details: free WA 2 μM in apical chamber, external magnetic field 0.8 T, 3 h
Description: (§3) FIGS. 3A-3B provide: A) Effect of WA and MENP on in-vitro BBB integrity: WA (2 μM) and MENPs (100 μg) were added in the upper chamber of the BBB model with magnet (0.8 T) placed underneath the culture plate for 3 h duration. After treatment, Transepithelial Electrical Resistance (TEER) values were calculated and compared with control; B) Aβ1-40 ELISA from supernatant from SHAPP cells: To study WA (2 μM) efficacy and BBB permeability without MENPs, Aβ1-40 specific enzyme-linked immunosorbent assay (ELISA) was performed using supernatant collected from the basal side of the BBB trans-well where SHAPP cells were seeded at the bottom of culture plate. (n=3; NS-Not Significant.)
(§4) In-vitro BBB model was developed using brain microvascular endothelial cells, astrocytes and pericytes. The integrity of BBB was examined by measuring the TEER values before and after addition of free WA (2 μM) and free MENPs (100 μg) to the apical chamber of in vitro BBB model.
Preparation and validation of BBB integrity: Established in vitro BBB model can be used. The BBB model can be constructed using primary endothelial cells (HBMEC), pericytes (HMVP) and astrocytes (HA). BBB formation and intactness can be determined by measuring the TEER using the REMS AutoSampler BBB device and permeability to fluorescein isothiocyanate-dextran (FITC dextran). […]

SH-APP cells = experiment: MTT cytotoxicity assay in SH-APP cells; format: cell-based, human; details: WA 0.5 to 2.5 μM, 48 hours
[3] = test system: Aβ secretion by SH-APP cells; experiment: Aβ 1-40 ELISA of culture supernatants of WA treated SH-APP cells; format: cell-based, human
Description: (n=3; *, p≤0.05; NS-Not Significant).
Human neuroblastoma cells transfected with APP gene (SH-APP) were cultured with different concentrations of WA (0.5 to 2.5 μM) and the culture supernatants were tested for Aβ 1-40 by ELISA.

HIV-1 = experiment: HIV infection of CHME-5 microglial cells (p24 ELISA, LTR quantitative real-time PCR); format: cell-based; details: WA 0.5 and 1 μM, 7 dpi
Description: as §1, §2

[4] = test system: Aβ-secretion in SH-APP cells; experiment: WA BBB permeability without MENPs: Aβ1-40 ELISA of SH-APP cells in the basal chamber of the BBB trans-well; format: cell-based, human
Description: as §3, §4

[5] = Binding of miR-107 to MENPs; format: physicochemical; details: 100 nM miR-107, 100 μg MENPs, PBS pH 7.4, 30 minutes
Description: (§5) FIGS. 2A-2B provide miR-107 binding and release. A) % binding of miR-107 with MENP with respect to different concentrations; B) Release kinetics of miR-107 from MENP surface as a function of externally applied alternating current magnetic field strength (60 and 80 Oe) at different time points (10, 20 and 30 min).
(§6) Binding kinetics with respect to different concentrations of miR-107 was performed using 100 μg of MENPs (FIG. 2A). Sample were incubated in phosphate buffered saline (PBS) (pH-7.4) and kept on vertical rotator under constant rotation (200 rpm) for 30 minutes. […] Release kinetics of miR-107 from MENPs was studied using UV spectroscopy at 260 nm. 100 nM of miR-107 was incubated with 100 μg of MENPs in 1 mL PBS (pH 7.4) for 30 mins and its release kinetics performed using alternating current magnetic field via electromagnetic coil at various time points (i.e., 10, 20, and 30 minutes).

[6] = Release of miR-107 from MENPs under alternating current magnetic field (UV spectroscopy at 260 nm); format: physicochemical; details: 30 mins
Description: as §5, §6

## CN1CCN(CCc2ccc(Cl)c(Cl)c2)CC1.Cl.Cl [BD1063, 1-[2-(3,4-Dichlorophenyl)ethyl]-4-methylpiperazine dihydrochloride]
σ-1 receptor
  cocaine-induced convulsions: significantly attenuated
  cocaine-induced locomotor stimulatory effects: significantly attenuated

## CC1=C(CO)C(=O)O[C@@H]([C@@H](C)[C@H]2CC[C@H]3[C@@H]4C[C@H]5O[C@]56[C@@H](O)C=CC(=O)[C@]6(C)[C@H]4CC[C@]23C)C1 [WA, 5,6-Epoxy-4,27-dihydroxy-1-oxowitha-2,24-dienolide]
[1]
  HIV-induced Aβ levels: significantly decreased
CHME-5 cells
  cell viability: > 80%
HIV
  HIV induced LTR copies: 400 copies
[2]
  TEER values (BBB integrity): no difference in TEER values
SH-APP cells
  cytotoxicity: do not show any cytotoxic effects; also recorded: no significant cytotoxicity
[3]; 2 µM WA
  β-Amyloid production (Aβ1-40 ELISA): significantly attenuates
[3]; WA 0.5 to 2.5 μM
  Aβ secretion (Aβ 1-40): dose dependent decrease
HIV-1; cell pellet
  HIV-1 replication, LTR levels: significant suppression
HIV-1; culture supernatant
  HIV-1 replication, p24 levels: significant suppression
[4]; WA 2 μM without MENP in the apical chamber
  Aβ-secretion in SH-APP cells in basal chamber vs untreated control: no changes in the Aβ-secretion
[4]; free WA 2 μM, not bound to MENP, apical chamber
  crossing of the BBB: could not cross the BBB

## miR-107: microRNA 107, inhibitor of BACE-1 expression; SEQ ID NO: 1 (pre-miRNA), SEQ ID NO: 2 (mature) (AGCAGCAUUGUACAGGGCUAUCA; listed as RNA, chemistry not given here; listed as Homo sapiens)
[5]
  maximum miR-107 binding to MENPs: 70%
[6]; 60 Oe alternating current magnetic field
  release of miR-107 from MENPs: 75%
[6]; 100 Hz, 80 Oe alternating current magnetic field
  release of miR-107 from MENPs: ~100%
